Results from US4973603A, “Platelet activating factor antagonist and methods of use therefor” (priority 1989, dated 1990).

Experiments:
[1] = test system: 5-HETE synthesis in mouse peritoneal macrophages; test: Inhibition of 5-HETE Synthesis in mouse peritoneal macrophages; format: cell-based, mouse (CD-1, female); conditions: for 5-HETE (%) (percentage of total recovered radioactivity): vehicle 2.9 ± 0.16
Method: It has been proposed that products of lipoxygenase action such as leukotriene […] (LTB4) and 5-hydroxyeicosatetraenoic acid (5-HETE) can act synergistically with PAF to cause neutrophil degranulation which may contribute to the development of inflammation. J. T. O'Flaherty, J. Cell Biology, 122:229-239 (1985). Formula I was tested as an inhibitor of 5-HETE production in mouse peritoneal macrophages using the following procedure.
Peritoneal cells were collected from female CD-1 mice (20-25 g) following sacrifice by cervical dislocation. The cells from each group of mice were pooled, centrifuged and suspended in MEM. Aliquotes containing 4.5×10^6 cells in 3.0 ml MEM were placed in culture dishes and incubated for 18 hours at 37° C. By this procedure, a relatively homogenous monolayer of macrophages was obtained. Eicosanoid synthesis was brought about by the addition of ^14 C-arachidonic acid (2×10^5 dpm; 0.22 μM) followed by a calcium ionophore, A23187 (0.03 μM). After 15 minutes, the reaction was stopped by the addition of citric acid to pH4 and the products were extracted with ethyl acetate. Silica gel thin layer chromatography (hexane; ether; acetic acid; 50:50:1) was used to separate the 5-HETE which was identified by comparison with authentic material. Carbon-14 content was measured by liquid scintillation counting of the HETE containing zone. The significance of drug induced changes was calculated using the Student's test when compared with vehicle treated (ethanol, 30 μl) cells.

[2] = test system: arachidonic acid; test: The Mouse Ear Edema Test (arachidonic acid-induced skin edema); format: in vivo, mouse (Charles River CD-1, female); conditions: for % Inhibition of Edema: 1 hour before arachidonic acid (0.5 mg)
Description: The direct application of arachidonic acid to skin, such as the mouse ear, produces an edematous response which is believed to be mediated by eicosanoids resulting from the actions of both cyclooxygenase and lipoxygenase systems. J. M. Young, D. A. Spires, C. J. Bedford, B. Wagner, S. J. Ballaron and L. M. DeYoung, J. Invest. Dermatol. 82:367-371 (1984); E. E. Opas, R. J. Bonney, and J. L. Hanes J. Invest. Dermatol. 84:253-256 (1985). PAF has been reported to cause the release of arachidonic acid, and as a result, gives rise to increased levels of eicosanoids in the exposed tissues. F. H. Chilton, J. T. Flaherty, C. E. Walsh, M. J. Thomas, R. L. Wykle, L. R. DeChatelet and B. M. Waite, J. Biol. Chem., 257:5402-5407 (1982). Thus, the mouse ear edema test can be used to discover substances which antagonize the effects of PAF.
The test drugs were dissolved in 10 μl ethanol and applied to the inner surface of the left ears of Charles River CD-1 female mice. Control values were obtained by applying 10 μl of ethanol to the right ear so that each mouse served as its own control. One hour later, arachidonic acid (0.5 mg/ear in 10 μl ethanol) was applied to both ears and allowed to act on the skin for one hour. The mice were then killed by cervical dislocation and the ears removed so that all tissue samples were of equivalent areas. The extent of edema in each sample was measured by weighing on an analytical balance.

[3] = test system: platelet activating factor (PAF); test: PAF Induced Paw Edema in the Mouse; format: in vivo, mouse (Charles River CD-1, female); conditions: for % Inhibition of Edema: 1 hour before PAF (1 ug/paw), 15 min after PAF
Method: The experimental procedure was adapted from Calhoun et al., Agents & Actions, 21:306-309 (1987). Charles River CD-1 female mice (20-25 G) were given a dose of Formula I, or phenidone, using peanut oil as a carrier. Control mice were given doses of the carrier alone. The drugs were administered orally in a 50 μl volume of peanut oil. One hour later, 1.0 μg of PAF dissolved in 50 μl of 5% ethanol-saline was injected subcutaneously into the plantar surface of the right hind paw. The volume of this injected foot to the level of the lateral malleous was measured by water displacement immediately before drug administration and again 15 minutes after PAF injection.
The effectiveness of each compound was analyzed in the following manner. The individual paw volumes were compared by a paired t test analysis in which predrug paw volumes were compared to paw volumes 15 minutes after PAF injection to determine the level of statistical significance. The percent inhibition of edema volume was obtained from the ratio of the mean predrug volume to the mean volume after PAF.

[4] = test system: platelet activating factor (PAF); test: PAF Induced Mortality; format: in vivo, mouse (Charles River CD-1, female)
Method: The induction of mortality by the injection of low doses of PAF into mice has been described as a method for assessing the effectiveness of agents to antagonize the anaphylactic properties of PAF by J. M. Young, P. J. Maloney, S. W. Jubb and J. S. Clarke, in Prostaglandins, 30:545-551 (1985). Charles River CD-1 female mice (25-30 g) were given intraperitoneal injections of PAF (10 μg) dissolved in 100 μl of 5% ethanol-saline. […] Test drugs were orally administered in 50 μl of peanut oil one hour prior to PAF injection. Control mice were dosed with vehicle only. Mortality was assessed by counting survivors at one hour, two hours, and twenty four hours after the PAF injection.

[5] = 20 mg/kg oral, 1 hr after PAF (10 μg i.p.)
[6] = 20 mg/kg oral, 2 hrs after PAF (10 μg i.p.)
[7] = 20 mg/kg oral, 24 hrs after PAF (10 μg i.p.)
[8] = 40 mg/kg oral, 1 hr after PAF (10 μg i.p.)
[9] = 40 mg/kg oral, 2 hrs after PAF (10 μg i.p.)
[10] = 40 mg/kg oral, 24 hrs after PAF (10 μg i.p.)
[11] = 80 mg/kg oral, 1 hr after PAF (10 μg i.p.)
[12] = 80 mg/kg oral, 2 hrs after PAF (10 μg i.p.)
[13] = 80 mg/kg oral, 24 hrs after PAF (10 μg i.p.)

CCCCCc1cc(O)c2c(c1)OC(C)(C)C1CC=C(C(=O)O)CC21 (centres unmarked) [Formula I, 6a,7,10,10a-tetrahydro-6,6-dimethyl-9-carboxyl-3-pentyl-6H-dibenzo[b,d]pyran-1-ol]
5-HETE (%) (percentage of total recovered radioactivity) ([1]; 0.32 μM): 3.08 ± 0.36% | 5-HETE (%) (percentage of total recovered radioactivity) ([1]; 1.6 μM): 3.03 ± 0.42% | 5-HETE (%) (percentage of total recovered radioactivity) ([1]; 3.2 μM): 1.58 ± 0.41% | 5-HETE (%) (percentage of total recovered radioactivity) ([1]; 4 μM): 1.68 ± 0.15% | 5-HETE (%) (percentage of total recovered radioactivity) ([1]; 8 μM): 1.48 ± 0.87% | 5-HETE (%) (percentage of total recovered radioactivity) ([1]; 16 μM): 3.10 ± 0.10% | inhibition at 3.2 µM ([1]; Mus musculus, Peritoneal macrophage, 3.2 μM): 46% | inhibition at 4 µM ([1]; Mus musculus, Peritoneal macrophage, 4 μM): 42% | inhibition at 8 µM ([1]; Mus musculus, Peritoneal macrophage, 8 μM): 49% | reduction of 5-HETE synthesis (in words) ([1]; dose range of 3.2 to 8 μM): reduces 5-HETE synthesis to one half of the control level | % Inhibition of Edema ([2]; 0.13 mg/ear topical): 0.6% | % Inhibition of Edema ([2]; 0.25 mg/ear topical): 18.3% | % Inhibition of Edema ([2]; 0.50 mg/ear topical): 19.1% | % Inhibition of Edema ([2]; 1.0 mg/ear topical): 19.3% | reduction of arachidonic acid-induced skin edema (in words) ([2]; topical, mouse ear): effective in reducing arachidonic acid-induced skin edema | relative activity versus naproxen ([2]; topical, mouse ear): more active than the widely used antiinflammatory drug naproxen | relative potency versus indomethacin and phenidone ([2]; topical, mouse ear): approximately one half the potency of agents such as indomethacin and phenidone | % Inhibition of Edema ([3]; 10 mg/kg oral): 21.8% | % Inhibition of Edema ([3]; 20 mg/kg oral): 50.2% | % Inhibition of Edema ([3]; 40 mg/kg oral): 46.2% | antagonism of inflammatory actions of PAF (in words) ([3]; mouse paw edema, oral): effective antagonist to the inflammatory actions of PAF | Survivors (%) [4, 5]: 25% | Survivors/N [4, 5]: 5/20 | Survivors (%) [4, 6]: 25% | Survivors/N [4, 6]: 5/20 | Survivors (%) [4, 7]: 25% | Survivors/N [4, 7]: 5/20 | Survivors (%) [4, 8]: 80% | Survivors/N [4, 8]: 12/15 | Survivors (%) [4, 9]: 80% | Survivors/N [4, 9]: 12/15 | Survivors (%) [4, 10]: 80% | Survivors/N [4, 10]: 12/15 | survival rate ([4]; 40 mg/kg oral, all time points (1, 2, 24 hours)): 80% | Survivors (%) [4, 11]: 70% | Survivors/N [4, 11]: 7/10 | Survivors (%) [4, 12]: 70% | Survivors/N [4, 12]: 7/10 | Survivors (%) [4, 13]: 70% | Survivors/N [4, 13]: 7/10 | antagonism of anaphylactic effects of PAF (in words) ([4]; oral, mouse): potent antagonist to the anaphylactic effects of PAF
